These results are taken from US20210392895A1, “NOVEL OXADIAZOLES” (PI INDUSTRIES LIMITED, priority 2018, published 2021).

Counter-ions that a name gives are not always drawn.

In assay [1] the test system is Phakopsora pachyrhizi. The assay is described as follows: Phakopsora pachyrhizi test in soybean (greenhouse, preventive activity, disease severity rating). It is filed as in vivo. The note with it: preventive spray on soybean, compared to the untreated check. The essentials: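 Greenhouse-raised young soybean plants sprayed with compound at stated rates, then inoculated one day later with 2.1×10^6 P. pachyrhizi spores and held at 25° C, 90% RH. Disease severity (0-100%) rated visually 3, 7, 10 and 15 days after application; % control calculated versus untreated plants.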

In assay [2] the test system is Alternaria solani. Description: Alternaria solani (early blight of tomato/potato) in vitro test, radial growth on Potato Dextrose Agar. The assay is classed as cell-based. As to conditions: 168 h, compared to the untreated check, radial growth after seven days, read-out: control.
For assay [3], the system named is Pyricularia oryzae. The assay is described as follows: microbe, parasite or virus in culture. The assay is classed as cell-based. As to conditions: 168 h, read-out: control.
For assay [4], the system named is Botrytis cinerea. Description: Botrytis cinerea (gray mold) in vitro test, radial growth on Potato Dextrose Agar. The note with it: 168 h, compared to the untreated check, radial growth after seven days, read-out: control. The assay is classed as cell-based.
Assay [5] deals with Rhizoctonia solani. Description: Rhizoctonia solani (rice sheath blight/potato black scurf) in vitro test, radial growth on Potato Dextrose Agar. The note with it: 168 h, compared to the untreated check, radial growth after seven days, read-out: control. The assay is classed as cell-based.
Assay [6] relates to Colletotrichum capsici. Description: Colletotrichum capsici (anthracnose) in vitro test, radial growth on Potato Dextrose Agar. The note with it: Colletotrichum truncatum, 168 h, read-out: control.
Description: Compounds were dissolved in 0.3% DMSO and then added to Potato Dextrose Agar medium just prior to dispensing it into petri dishes. 5 mL medium with compound in the desired concentration was dispensed into 60 mm sterile petri-plates. After solidification, each plate was seeded with a 5 mm size mycelial disc taken form the periphery of an actively growing virulent culture plate. Plates were incubated in growth chambers at 25° C. temperature and 60% relative humidity for seven days and radial growth was measured.

With `COc1cccc(C(=O)N2CC[C@H](Oc3ccc(-c4noc(C(F)(F)F)n4)cc3)C2)c1` [Compound 1, (S)-(3-methoxyphenyl)(3-(4-(5-(trifluoromethyl)-1,2,4-oxadiazol-3-yl)phenoxy)pyrrolidin-1-yl)methanone], the pest or weed control (in general, the degree to which the test organism was suppressed or injured, in per cent) at 500 ppm in assay [1] is greater than 70%. The inhibition of growth at 300 ppm in assay [2] is greater than 70%.
`COc1ccc(CC(=O)N2CC[C@H](Oc3ccc(-c4noc(C(F)(F)F)n4)cc3)C2)cc1OC` [Compound 5, (S)-2-(3,4-dimethoxyphenyl)-1-(3-(4-(5-(trifluoromethyl)-1,2,4-oxadiazol-3-yl)phenoxy)pyrrolidin-1-yl)ethan-1-one] had a pest or weed control at 500 ppm in assay [1] greater than 70%. The inhibition of growth at 300 ppm in assay [3] is greater than 70%.
On to `O=C(c1ccccc1F)N1CC[C@H](Oc2ccc(-c3noc(C(F)(F)F)n3)cc2)C1` [Compound 6, (S)-(2-fluorophenyl)(3-(4-(5-(trifluoromethyl)-1,2,4-oxadiazol-3-yl)phenoxy)pyrrolidin-1-yl)methanone], for which the inhibition of growth at 300 ppm in assay [2] is greater than 70%.
On to `O=C(Cc1ccccc1)N1CC[C@H](Oc2ccc(-c3noc(C(F)(F)F)n3)cc2)C1` [Compound 11, (S)-2-phenyl-1-(3-(4-(5-(trifluoromethyl)-1,2,4-oxadiazol-3-yl)phenoxy)pyrrolidin-1-yl)ethan-1-one], for which the pest or weed control at 500 ppm in assay [1] is greater than 70%. Besides, in assay [3], the inhibition of growth at 300 ppm is greater than 70%.
Regarding `COc1cccc(C(=O)N2CC(Oc3ccc(-c4noc(C(F)(F)F)n4)cc3)C2)c1` [Compound 17, (3-methoxyphenyl)(3-(4-(5-(trifluoromethyl)-1,2,4-oxadiazol-3-yl)phenoxy)azetidin-1-yl)methanone], the pest or weed control at 500 ppm in assay [1] is greater than 70%. The inhibition of growth at 300 ppm in assay [3] was greater than 70%.
Molecule `COc1cccc(CC(=O)N2CC[C@H](Oc3ccc(-c4noc(C(F)(F)F)n4)cc3)C2)c1` [Compound 24, (S)-2-(3-methoxyphenyl)-1-(3-(4-(5-(trifluoromethyl)-1,2,4-oxadiazol-3-yl)phenoxy)pyrrolidin-1-yl)ethan-1-one] gave a pest or weed control at 500 ppm in assay [1] greater than 70%. Besides, the inhibition of growth at 300 ppm in assay [2] is greater than 70%.
In assay [1], `O=C(c1ccccc1F)N1CC[C@H](Oc2ccc(-c3noc(C(F)(F)F)n3)cn2)C1` [Compound 45, (S)-(2-fluorophenyl)(3-((5-(5-(trifluoromethyl)-1,2,4-oxadiazol-3-yl)pyridin-2-yl)oxy)pyrrolidin-1-yl)methanone] came in with a pest or weed control at 500 ppm greater than 70%. The inhibition of growth at 300 ppm in assay [3] was greater than 70%.
In the case of `O=C(c1cccnc1)N1CC[C@H](Oc2ccc(-c3noc(C(F)(F)F)n3)cn2)C1` [Compound 48, (S)-pyridin-3-yl(3-((5-(5-(trifluoromethyl)-1,2,4-oxadiazol-3-yl)pyridin-2-yl)oxy)pyrrolidin-1-yl)methanone], the pest or weed control at 500 ppm in assay [1] is greater than 70%. Besides, the inhibition of growth at 300 ppm in assay [3], in assay [4], in assay [2] and in assay [5] was greater than 70% throughout.
As to `O=C(c1ccncc1)N1CC[C@H](Oc2ccc(-c3noc(C(F)(F)F)n3)cn2)C1` [Compound 49, (S)-pyridin-4-yl(3-((5-(5-(trifluoromethyl)-1,2,4-oxadiazol-3-yl)pyridin-2-yl)oxy)pyrrolidin-1-yl)methanone], the pest or weed control at 500 ppm in assay [1] was greater than 70%. For the same molecule, the inhibition of growth at 300 ppm in assay [6], in assay [3], in assay [2] and in assay [5] was greater than 70% each time.
`COc1ccc(C(=O)N2CC[C@H](Oc3ccc(-c4noc(C(F)(F)F)n4)cc3)C2)cn1` [Compound 56, (S)-(6-methoxypyridin-3-yl)(3-(4-(5-(trifluoromethyl)-1,2,4-oxadiazol-3-yl)phenoxy)pyrrolidin-1-yl)methanone] came in with a pest or weed control at 500 ppm in assay [1] greater than 70%. Also, in assay [3], the inhibition of growth at 300 ppm was greater than 70%.
Regarding `O=C(c1cccnc1)N1CC[C@H](Oc2ccc(-c3noc(C(F)(F)F)n3)cc2F)C1` [Compound 58, (S)-(3-(2-fluoro-4-(5-(trifluoromethyl)-1,2,4-oxadiazol-3-yl)phenoxy)pyrrolidin-1-yl)(pyridin-3-yl)methanone], the inhibition of growth at 300 ppm in assay [3] and in assay [2] was greater than 70% throughout.
In turn, `CC(C)(C)OC(=O)N1CC[C@H](Oc2ccc(-c3noc(C(F)(F)F)n3)cc2F)C1` [Compound 60, tert-butyl-(S)-3-(2-fluoro-4-(5-(trifluoromethyl)-1,2,4-oxadiazol-3-yl)phenoxy)pyrrolidine-1-carboxylate] displayed a pest or weed control at 500 ppm in assay [1] greater than 70%. Also, the inhibition of growth at 300 ppm in assay [3] was greater than 70%.
In assay [1], `CCS(=O)(=O)N1CC[C@H](Oc2ccc(-c3noc(C(F)(F)F)n3)cc2F)C1` [Compound 61, (S)-3-(4-((1-(ethylsulfonyl)pyrrolidin-3-yl)oxy)-3-fluorophenyl)-5-(trifluoromethyl)-1,2,4-oxadiazole] showed a pest or weed control at 500 ppm greater than 70%. For the same molecule, the inhibition of growth at 300 ppm in assay [3] was greater than 70%.
`FC(F)(F)c1nc(-c2ccc(N(c3ccc(-c4noc(C(F)(F)F)n4)cc3)C3CNC3)cc2)no1` [Compound 86, N,N-bis(4-(5-(trifluoromethyl)-1,2,4-oxadiazol-3-yl)phenyl)azetidin-3-amine Hydrochloride] returned a pest or weed control at 500 ppm in assay [1] greater than 70%. Also, in assay [2], the inhibition of growth at 300 ppm was greater than 70%.
`CN(c1ccc(-c2noc(C(F)(F)F)n2)cc1)C1CN(C(=O)c2ccccc2)C1` [Compound 87, (3-(methyl(4-(5-(trifluoromethyl)-1,2,4-oxadiazol-3-yl)phenyl)amino)azetidin-1-yl)(phenyl)methanone]: the pest or weed control at 500 ppm in assay [1] is greater than 70%. The inhibition of growth at 300 ppm in assay [6] was greater than 70%.
`CN(c1ccc(-c2noc(C(F)(F)F)n2)cc1)C1CN(C(=O)c2cccc(F)c2)C1` [Compound 96, (3-fluorophenyl)(3-(methyl(4-(5-(trifluoromethyl)-1,2,4-oxadiazol-3-yl)phenyl)amino)azetidin-1-yl)methanone]: the inhibition of growth at 300 ppm in assay [6], in assay [3] and in assay [2] was greater than 70% in each case.
Turning to `Cc1ccc(C(=O)N2CC(N(C)c3ccc(-c4noc(C(F)(F)F)n4)cc3)C2)cc1` [Compound 97, (3-(methyl(4-(5-(trifluoromethyl)-1,2,4-oxadiazol-3-yl)phenyl)amino)azetidin-1-yl)(p-tolyl)methanone], the inhibition of growth at 300 ppm in assay [3] and in assay [2] was greater than 70% in each case.
Take `COc1ccc(C(=O)N2CC(N(C)c3ccc(-c4noc(C(F)(F)F)n4)cc3)C2)cc1` [Compound 98, (4-methoxyphenyl)(3-(methyl(4-(5-(trifluoromethyl)-1,2,4-oxadiazol-3-yl)phenyl)amino)azetidin-1-yl)methanone]: the inhibition of growth at 300 ppm in assay [3] and in assay [2] was greater than 70% in each case.
`CN(c1ccc(-c2noc(C(F)(F)F)n2)cc1)C1CN(C(=O)Cc2ccccc2)C1` [Compound 99, 1-(3-(methyl(4-(5-(trifluoromethyl)-1,2,4-oxadiazol-3-yl)phenyl)amino)azetidin-1-yl)-2-phenylethan-1-one]: the inhibition of growth at 300 ppm in assay [3] and in assay [2] was greater than 70% in each case.
For the molecule `O=C(c1ccccc1F)N1CCC(Oc2cccc(-c3noc(C(F)(F)F)n3)c2)C1` (stereo not shown) [Compound 132, (2-fluorophenyl)(3-(3-(5-(trifluoromethyl)-1,2,4-oxadiazol-3-yl)phenoxy)pyrrolidin-1-yl)methanone], in assay [2], the inhibition of growth at 300 ppm is greater than 70%.
Consider `O=C(c1cccc(F)c1)N1CCC(Oc2cccc(-c3noc(C(F)(F)F)n3)c2)C1` (stereo not shown) [Compound 133, (3-fluorophenyl)(3-(3-(5-(trifluoromethyl)-1,2,4-oxadiazol-3-yl)phenoxy)pyrrolidin-1-yl)methanone], for which the inhibition of growth at 300 ppm in assay [3] and in assay [2] was greater than 70% each time.
Consider `O=C(c1ccc(F)cc1)N1CCC(Oc2cccc(-c3noc(C(F)(F)F)n3)c2)C1` (stereo not shown) [Compound 134, (4-fluorophenyl)(3-(3-(5-(trifluoromethyl)-1,2,4-oxadiazol-3-yl)phenoxy)pyrrolidin-1-yl)methanone], for which the inhibition of growth at 300 ppm in assay [3] and in assay [2] was greater than 70% each time.
As to `CC(C)S(=O)(=O)N1CC[C@H](Oc2ccc(-c3noc(C(F)(F)F)n3)cc2)C1` [Compound 136, (S)-3-(4-((1-(isopropylsulfonyl)pyrrolidin-3-yl)oxy)phenyl)-5-(trifluoromethyl)-1,2,4-oxadiazole], the inhibition of growth at 300 ppm in assay [6] is greater than 70%.
On to `O=C(c1ccncc1)N1CCC(Oc2ccc(-c3noc(C(F)(F)F)n3)cc2)CC1` [Compound 179, pyridin-4-yl(4-(4-(5-(trifluoromethyl)-1,2,4-oxadiazol-3-yl)phenoxy)piperidin-1-yl)methanone], for which the inhibition of growth at 300 ppm in assay [3] is greater than 70%.
Still for that read-out and setting: as for `COc1cccc(S(=O)(=O)N2CC(N(C)c3ccc(-c4noc(C(F)(F)F)n4)cc3)C2)c1` [Compound 198, 1-((3-methoxyphenyl)sulfonyl)-N-methyl-N-(4-(5-(trifluoromethyl)-1,2,4-oxadiazol-3-yl)phenyl)azetidin-3-amine], the figure is greater than 70%.
`O=C(c1cscn1)N1CC[C@H](Oc2ccc(-c3noc(C(F)(F)F)n3)cn2)C1` [Compound 200, (S)-thiazol-4-yl(3-((5-(5-(trifluoromethyl)-1,2,4-oxadiazol-3-yl)pyridin-2-yl)oxy)pyrrolidin-1-yl)methanone]: the inhibition of growth at 300 ppm in assay [6], in assay [3] and in assay [2] was greater than 70% in each case.
